Assay results reported in patent US20090286790A1, “ORGANIC COMPOUNDS” (priority 2006, published 2009).

Target: T1, CETP (Homo sapiens, UniProt P11597)
T1 construct: Human plasma (50 uL), assay buffer (35 uL) and test compound; tissue New Drug Development Research Center, Inc; host or cells: human EDTA plasma from healthy men
T1 sequence (P11597 18-493): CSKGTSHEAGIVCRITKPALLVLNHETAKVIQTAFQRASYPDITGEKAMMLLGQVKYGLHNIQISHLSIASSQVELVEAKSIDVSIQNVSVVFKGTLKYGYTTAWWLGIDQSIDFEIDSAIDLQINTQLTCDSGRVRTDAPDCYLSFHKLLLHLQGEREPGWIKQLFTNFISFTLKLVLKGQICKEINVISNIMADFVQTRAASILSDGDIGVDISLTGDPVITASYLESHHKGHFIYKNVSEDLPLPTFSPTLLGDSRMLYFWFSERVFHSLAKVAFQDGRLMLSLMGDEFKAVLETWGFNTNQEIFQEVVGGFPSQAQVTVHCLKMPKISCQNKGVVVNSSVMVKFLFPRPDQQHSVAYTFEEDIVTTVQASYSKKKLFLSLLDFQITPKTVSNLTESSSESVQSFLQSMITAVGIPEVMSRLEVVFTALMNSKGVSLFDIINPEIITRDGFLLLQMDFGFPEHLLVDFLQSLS
Test: In vitro CETP activity assay in human plasma
Assay type: biochemical
Settings: Table 1 Inhibitory Activity of Compounds
Procedure: The cDNA of human pro-apoAI (NCBI accession number: NM_000039) is cloned from human liver Quick-Clone™ cDNA (Clontech, CA) and inserted to a pET28a vector (Novagen, Germany) for bacterial expression. Expressed protein as a fusion protein with 6×His-tag at N-terminus in BL-21 Gold (DE3) (Strategene, CA) is purified using HiTrap Chelating (GE Healthcare, CT).
Pro-apoAI containing microemulsion as a donor particle is prepared following previous reports (J. Biol. Chem., 280:14918-22). Glyceryl trioleate (62.5 ng, Sigma, Mo.), 3-sn-phosphatidylcholine (583 ng, Wako Pure Chemical Industries, Japan), and cholesteryl BODIPY® FL C12 (250 ng, Invitrogen, CA) are dissolved in 1 mL of chloroform. The solution is evaporated, then residual solvent is removed in vacuum for more than 1 hr. […]
Human EDTA plasma samples from healthy men are purchased from New Drug Development Research Center, Inc. Donor solution is prepared by a dilution of donor microemulsion with assay buffer. […] Fluorescence intensities are measured every 30 min at 37° C. with excitation wave length of 485 nm and emission wavelength of 535 nm. The CETP activity (Fl/min) is defined as the changes of fluorescence intensity from 30 to 90 min.

IC50 [µM] | Structure (SMILES)
0.357 | CC[C@@H]1C[C@H](N(Cc2cc(C(F)(F)F)cc(C(F)(F)F)c2)c2ncc(Br)cn2)C[C@H](Cc2ccccc2)N1C(=O)[C@H]1CC[C@@H](O)CC1 (relative stereo) [Example 18, {2-benzyl-4-[(3,5-bis-trifluoromethyl-benzyl)-(5-bromo-pyrimidin-2-yl)-amino]-6-ethyl-piperidin-1-yl}-(4-hydroxy-cyclohexyl)-methanone]
0.314 | CC[C@@H]1C[C@H](N(Cc2cc(C(F)(F)F)cc(C(F)(F)F)c2)c2ncc(Br)cn2)C[C@H](Cc2ccccc2)N1C(=O)[C@H]1CC[C@@H](OC(C)=O)CC1 (relative stereo) [Example 17, acetic acid 4-{2-benzyl-4-[(3,5-bis-trifluoromethyl-benzyl)-(5-bromo-pyrimidin-2-yl)-amino]-6-ethyl-piperidine-1-carbonyl}-cyclohexyl Ester]
